Publication PMC3236098 (Bioorganic & medicinal chemistry, 2011)

Columns and labels:
rTAAR1 = details: read-out: EC50 Rat TAAR1; cited from earlier work
mTAAR1 = details: read-out: EC50 Mouse TAAR1; cited from earlier work
DAT = details: read-out: EC50 in rat synaptosomes; reference not given; cited from earlier work
[1] = cited from earlier work; for excitation in humans: doses of 100 mg (or greater)
hTAAR1 = target: T1, hTAAR1 (Homo sapiens, UniProt Q96RJ0); assay type: cell-based
T1 sequence (Q96RJ0 1-339): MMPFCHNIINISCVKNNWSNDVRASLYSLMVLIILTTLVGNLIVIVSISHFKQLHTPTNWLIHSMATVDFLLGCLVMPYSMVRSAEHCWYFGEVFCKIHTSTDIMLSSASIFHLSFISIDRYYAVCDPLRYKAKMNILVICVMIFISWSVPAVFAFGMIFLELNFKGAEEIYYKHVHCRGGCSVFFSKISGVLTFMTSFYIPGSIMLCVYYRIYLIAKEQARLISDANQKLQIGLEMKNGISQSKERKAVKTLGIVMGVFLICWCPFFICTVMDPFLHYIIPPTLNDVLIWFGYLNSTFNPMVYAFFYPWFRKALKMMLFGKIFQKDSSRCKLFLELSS

Q: What does the source list for `C[C@@H](N)Cc1ccccc1` [(R)-1, (R)-amphetamine]?
A: EC50 (rTAAR1): 1400 ± 600 nM; EC50 (mTAAR1): 65 ± 53 nM

Q: For `C[C@H](N)Cc1ccccc1` [(S)-1, (S)-amphetamine], which EC50 (rTAAR1) is on record?
A: 1200 ± 70 nM

Q: What about the EC50 (mTAAR1) of the same molecule?
A: 2 ± 1 nM

Q: Which excitation in humans [1] does the source give for `C[C@H](N)Cc1ccc2c(c1)OCO2` [(S)-3, (S)-3,4-methylenedioxyamphetamine] here?
A: excitation

Q: For `CN[C@@H](C)Cc1ccc2c(c1)OCO2` [(S)-4, (S)-3,4-methylenedioxymethamphetamine], which excitation in humans [1] is on record?
A: excitation

Q: With `C[C@H](N)Cc1cccc(C(F)(F)F)c1` [(S)-6, (S)-norfenfluramine] as the molecule, how does the “EC50 Human, potency to activate TAAR1” value (hTAAR1) read?
A: active ^*

Q: With `COc1cc(C[C@H](C)N)c(OC)cc1Br` [(S)-7, (S)-4-bromo-2,5-dimethoxyamphetamine] as the molecule, how does the effect in humans ([1]; doses of 0.5–1.0 mg) read?
A: no effect

Q: For `COc1cc(C[C@H](C)N)c(OC)cc1C` [(S)-8, (S)-4-methyl-2,5-dimethoxyamphetamine], which “agonist activity at hTAAR1 (in words)” value (hTAAR1) is on record?
A: lack of observed agonist activity
